# Assay results reported in patent US9845482B2, “Compositions and methods for enhancing bioenergetic status in female germ cells” (The General Hospital Corporation, priority 2011, dated 2017).
# Entries after “also recorded” stand apart in the source; their conditions may differ. Where two headings read alike, the source gives them in different places.
# How the values were obtained:
# [1] = tested on: OSCs from mice; test: Screen of mouse OSCs for compounds that enhance mitochondrial function (mtDNA, ATP, mitochondrial mass, membrane potential, gene expression); format: cell-based; settings: 24 hours
# Text: Female infertility due to chemotherapy, aging and premature ovarian failure (POF) is due in part to a decline in mitochondrial function in oocytes and OSCs. Accordingly, OSCs from mice were used to screen for small compounds that enhance mitochondrial function (“bioenergetic status”) in female germline cells. Assays for enhancing mitochondrial function included mtDNA content, ATP, NAD+/NADH, mitochondrial mass, mitochondrial membrane potential, and gene expression of known mitochondrial mass regulators and electron transport chain components.
# All the compounds were dissolved in DMSO. For screening purposes the cells were treated with the vehicle (0.001% DMSO) or with 25 or 50 μM of each compound (except for berberine, which the concentrations used for the screen were 5 μM and 25 μM) for 24 hours. For validation of the top 6 hits, cells were treated with vehicle (0.001% DMSO) or either 5 or 25 μM of each compound for 24 hours. For the gene expression profile, the cells were treated with the concentration that was considered to work better in the previous validation assays.
# Mitochondrial membrane potential was measured with a fluorescent probe, Tetramethylrhodamine methyl ester (TMRM) (Sigma) as described before (Rolo A. P. Biochim. Biophys. Acta 2003 1637: 127-132). Briefly the cells were loaded with 6.6 μM TMRM in HBSS buffer at 37° C. for 15 minutes in the dark. The supernatant was then aspirated, and the cells returned to the original volume with KHH. TMRM is a membrane-permeable cationic fluorophore that accumulates electrophoretically in mitochondria in proportion to their mitochondrial membrane potential (Ehrenberg B. V. et al. Biophys. J. 1988 53:785-794). Cell suspensions (200 μl containing 10^5 cells) were loaded into 96-well plates and fluorescence measured using excitation and emission wavelengths of 485 and 590 nm, respectively. Mitochondrial membrane potential was estimated, taking into account the complete depolarization caused by carbonyl cyanide p-(trifluoromethoxy)phenylhydrazone (FCCP).
# For mtDNA analysis, total DNA was extracted with DNeasy blood and tissue kit (QIAGEN). mtDNA was amplified using primers specific for the mitochondrial cytochrome c oxidase subunit 2 (COX2) gene and normalized to genomic DNA by amplification of the ribosomal protein s18 (rps18) nuclear gene. Primers were designed using the IDT software (IDT).
# ATP content was measured using a luciferase-based assay with a commercial kit according to the manufacturer's instructions (Roche Applied Science, Penzberg, Germany) and normalized to protein content in each sample.
# Mitochondrial mass was evaluated using the fluorescent probe N-nonyl acridine orange (NAO), briefly the cells were incubated in culture media containing 10 nM of NAO for 30 minutes at 37° C. in the dark. The cells were then trypsinized and resuspended in culture media without NAO. The NAO fluorescence intensity was then determined by flow cytometry on the FACSCALIBUR® (BD Biosciences, San Jose, Calif., USA) using the 488 nm laser.
# For gene expression analysis, RNA from skeletal muscle tissue and C2C12 cells were extracted with RNeasy mini kit (QIAGEN) according to the instructions and quantified using the NanoDrop 1000 spectrophotometer (Thermo Scientific). cDNA was synthesized with the iSCRIP cDNA synthesis kit (BioRad) using 200 ng of RNA. Quantitative RT-PCR reactions were performed using 1 μM of primers and LIGHTCYCLER® 480 SYBR® Green Master (Roche Applied Science, Penzberg, Germany) on an LIGHTCYCLER® 480 detection system (Roche Applied Science, Penzberg, Germany). Calculations were performed by a comparative method (2-ΔΔCT) using actin as an internal control. Primers were designed using the IDT software (IDT).
# [2] = tested on: Mouse OSCs; test: NAD+ and NADH levels in mouse OSCs treated with mitochondrial enhancers; format: cell-based; settings: 24 hours
# Experimental: FIG. 35 depicts levels of NAD+ (A) and NADH (B) in OSCs treated with mitochondrial enhancers. Mouse OSCs maintained in culture (Zou et al., Nat Cell Biol 2009 11:631-636) were exposed to the indicated test compounds for 24 hours and then assessed for levels of NAD+ and NADH. Female infertility due to chemotherapy, aging and premature ovarian failure (POF) is due in part to a decline in mitochondrial function in oocytes and OSCs. Accordingly, OSCs from mice were used to screen for small compounds that enhance mitochondrial function (“bioenergetic status”) in female germline cells. Assays for enhancing mitochondrial function included mtDNA content, ATP, NAD+/NADH, mitochondrial mass, mitochondrial membrane potential, and gene expression of known mitochondrial mass regulators and electron transport chain components. All the compounds were dissolved in DMSO. For screening purposes the cells were treated with the vehicle (0.001% DMSO) or with 25 or 50 μM of each compound (except for berberine, which the concentrations used for the screen were 5 μM and 25 μM) for 24 hours. For validation of the top 6 hits, cells were treated with vehicle (0.001% DMSO) or either 5 or 25 μM of each compound for 24 hours. For the gene expression profile, the cells were treated with the concentration that was considered to work better in the previous validation assays.
# [3] = tested on: murine oogonial stem cells (OSCs); test: NAD+/NADH quantitation in murine OSCs treated with NMN; format: cell-based; settings: NMN added at 12 h and 6 h prior to analysis
# Experimental: FIGS. 39A-39C are graphs showing that nicotinamide mononucleotides raise cellular NAD^+ and NAD+/NADH in murine oogonial stem cells (OSCs). Oogonial stem cells were isolated from dissociated ovaries using a FACS based sorting protocol to purify OSCs free of contaminating oocytes (see Example 1). Cells were maintained in culture medium consisted of minimum essential medium α (MEMα), 10% FBS, 1 mM sodium pyruvate, 1 mM non-essential amino acids, 2 mM L-glutamine, 0.1 mM β-mercaptoethanol (Sigma Aldrich Corporation, St. Louis, Mo., USA), 10 ng/ml-1 LIF (Millipore), 1× N-2 MAX Media Supplement (R&D) 10 ng/ml EGF (Epidermal growth factor, Recombinant human; Gibco Division of ThermoFisher Scientific, Waltham, Mass., USA), 40 ng/ml human GDNF (glial cell line-derived neurotrophic factor; R&D systems), 1 ng/ml human bFGF (basic fibroblast growth factor; Gibco Division of ThermoFisher Scientific, Waltham, Mass., USA).
# Oogonial stem cells were isolated from dissociated ovaries using a FACS based sorting protocol to purify OSCs free of contaminating oocytes (for details, see Example 1), Cells were maintained in culture medium consisted of minimum essential medium α (MEMα), 10% FBS, 1 mM sodium pyruvate, 1 mM […], 2 mM L-1-glutamine, 0.1 mM β-mercaptoethanol (Sigma), 10 ng/ml-1 LIF (Millipore), 1× N-2 MAX Media Supplement (R&D) 10 ng/ml EGF (Epidermal growth factor, Recombinant human; Gibco Division of Thermofisher Scientific, Waltham, Mass., USA), 40 ng/nil human GDNF (glial cell line-derived neurotrophic factor; R&D systems), 1 ng/ml human bFGF (basic fibroblast growth factor; Gibco Division of Thermofisher Scientific, Waltham, Mass., USA)
# For all experiments 25,000 cells were plated in each well of a 24 well plate. Cells were allowed to attach for twenty-four hours and then were treated with NMN (β-Nicotinamide mononucleotide; Sigma). Unless otherwise stated, NMN was added twice to the cells, first at twelve hours and then again at six hours prior to analysis (12+6 h). Mitochondrial DNA Copy number was analysed as follows. Total cellular DNA was isolated from cells at the indicated time points using DNeasy Blood & Tissue Kit (Qiagen) according to the manufacturer's instructions. Mitochondrial DNA copy number was quantified using LIGHTCYCLER 480 SYBR® Green I Master (Roche Applied Science, Penzberg, Germany) using the following primers on a LIGHTCYCLER480 PCR machine (Roche Applied Science (Penzberg, Germany).
# OSCs and oocytes treated with an NAD precursor (e.g. […] ie. “NMN”, see FIG. 38) had increased NAD^+, NAD^+:NADH, and mitochondrial DNA content (FIG. 40).
# [4] = tested on: murine OSCs; test: Mitochondrial DNA copy number in murine OSCs treated with NMN; format: cell-based
# Text: FIG. 40 is a graph showing that nicotinamide mononucleotide increases mitochondrial DNA content in murine OSCs. Total cellular DNA was isolated from cells at the indicated time points using DNEASY® Blood & Tissue Kit (Qiagen, Venlo, The Netherlands) according to the manufacturer's instructions. Mt DNA copy number was quantified using LIGHTCYCLER®480 SYBR® Green I Master (Roche Applied Science, Penzberg, Germany) using a LIGHTCYCLER®480 PCR machine (Roche Applied Science, Penzberg, Germany). […]
# For all experiments 25,000 cells were plated in each well of a 24 well plate. […] Mitochondrial DNA Copy number was analysed as follows. […] Mitochondrial DNA copy number was quantified using LIGHTCYCLER 480 SYBR® Green I Master (Roche Applied Science, Penzberg, Germany) using the following primers on a LIGHTCYCLER480 PCR machine (Roche Applied Science (Penzberg, Germany).
# [5] = tested on: cultured murine oogonial stem cells; test: Spontaneous oocyte formation in cultured murine OSCs after NMN; format: cell-based; settings: 25,000 OSCs per well of a 24-well plate
# Experimental: FIG. 41 is a graph showing that nicotinamide mononucleotide increases spontaneous oocyte formation in cultured murine oogonial stem cells. For assessment of spontaneous oocyte formation, each well of a 24-well plate was seeded with 25,000 OSCs, and the number of oocytes formed and released into the medium per well was assessed the second day after seeding as well as the designated time points after NMN treatment.
# Each well of a 24-well plate was seeded with 25,000 OSCs. The number of oocytes formed and released into the medium per well was assessed the second day after seeding as well as the designated time points after NMN treatment. […] NMN treatment is also expected to enhance the function of OCSsOSCs, oocytes, granulose cells, and blood vessels in the ovary.
# [6] = tested on: young and old mice; test: NAD+ levels in vivo after systemic NMN
# Experimental: FIG. 42 is a graph showing that the NAD^+ precursor NMN raises NAD^+ levels in vivo in young and old mice. Cardiac [NAD^+] declines with age and is reversed by NMN treatment (n=3; 200 mg·kg·d. I.P. for 1 week).
# (§1) NMN is delivered by intraperitoneal (I.P.) injection and raises NAD levels in brain, heart and skeletal muscle ˜30-100%. NMN increases mitochondrial function in C2C12 cells in a SIRT1-dependent manner (FIGS. 43C, D). sh Ct1=scrambled shRNA, Sh SIRT1=shRNA against SIRT1.
# (§2) NMN and other compounds that increase NAD^+ levels are useful for increasing fertility or otherwise reducing or reversing infertility in a female subject. In one embodiment, such compounds are delivered to a subject orally, by intraperitoneal injection (IP), or subcutaneously to increase the probability that the subject will conceive and deliver healthy offspring. Systemic administration of the NAD^+ precursor NMN raised NAD^+ levels in vivo in young and old mice. Cardiac [NAD^+] declines with age. This decline in NAD^+ was reversed by NMN treatment (n=3; 200 mg·kg·d. I.P. for 1 week)(FIG. 42). […] In another embodiment, NMN and other compounds that increase NAD^+ levels are delivered to an OSC, oocyte, blasotcyst, sperm, or isolated mitochondria in vitro. For example, such compounds are delivered to a germ cell prior to, during or following IVF. In another embodiment, a compound of the invention is used to enhance the yield or preservation of mitochondria from an OSC, oocyte, blasotcyst, sperm, or isolated mitochondria in vitro.
# [7] = tested on: skeletal muscle of 24-month old mice; test: Mitochondrial function in vivo after NMN; settings: 1 week of treatment, I.P.
# Text: as §1, §2
# [8] = tested on: C2C12 cells; test: Mitochondrial function in C2C12 cells with NMN (scrambled vs SIRT1 shRNA); format: cell-based; settings: SIRT1-dependent manner
# Text: as §1
# [9] = listed as nicotinamide mononucleotides
# [10] = listed as nicotinamide mononucleotide
SMILES,mitochondrial parameters [1],"activity above the baseline (DMSO alone), scored as a positive result ([1]; 25 or 50 μM (berberine 5 μM and 25 μM))",NAD^+ levels [2],NAD+/NADH [3],cellular NAD^+ [3],"NAD+/NADH [3, 9]","cellular NAD^+ [3, 9]",mitochondrial DNA content [4],"mitochondrial DNA content [4, 10]","spontaneous oocyte formation (rate of egg formation, EFA) [5]","spontaneous oocyte formation (rate of egg formation, EFA) [5, 10]","decline of cardiac [NAD^+] with age ([6]; 200 mg·kg·d. I.P. for 1 week, n=3)","raise of NAD levels in brain, heart and skeletal muscle ([6]; intraperitoneal (I.P.) injection)","NAD^+ levels in vivo ([6]; young and old mice, systemic administration)",mitochondrial function in vivo (decline in skeletal muscle of 24-month old mice) [7],mitochondrial function in C2C12 cells [8]
"N#CC(C#N)=Cc1ccc(O)cc1 [tyrphostin 8, 2[(4-hydroxyphenyl)methylidene]propanedinitrile]",increase mitochondrial parameters in a beneficial way,activity above the baseline,raise,,,,,,,,,,,,,
"NC(=O)c1ccc[n+]([C@@H]2O[C@H](COP(=O)([O-])O)[C@@H](O)[C@H]2O)c1 [NMN, β-Nicotinamide mononucleotide]",,,,increased,increased,raise,raise,increased,increases,increased,increases,reversed,30-100%,raises,restorative effect; also recorded: completely reversed,increases
